Experimental findings from patent US10456405B2, “Nitric oxide-releasing prodrug molecule of substituted quinazolines” (ZHEJIANG HUAHAI PHARMACEUTICAL CO., LTD, priority 2015, dated 2019) are described below.

Data set [1] can be described thus: Release of HNO (headspace gas chromatography of nitrous oxide). The settings on record: PBS pH 7.4, 37° C., argon, 90 min. On the procedure: Experiment 2. Experimental study on the tested compounds for releasing HNO HNO rapidly dimerizes and dehydrates to produce nitrous oxide in aqueous solution. In the experiment of detecting HNO, gas chromatographic headspace analysis is generally used to determine the amount of the released nitrous oxide, thereby indirectly detect the level of releasing HNO of the compound.
Experimental procedure: Each of the tested compounds was prepared to 20 mg/mL of mother liquor with DMF. Prior to the start of the experiment, 50 μL of drug mother liquor was placed into a 20 mL headspace sample vial. The tested compound was diluted by adding 5 mL of PBS buffer with pH 7.4. The temperature of the resulting sample was kept at 37° C. under argon gas for 90 min. Then the top gas was extracted for gas chromatographic analysis of nitrous oxide by using Angeli's Salt as a positive compound in the experiment.

Data set [2] can be described thus: Release of nitric oxide in vitro (Griess reagent, nitrite). As to conditions: for Amount of Released No: 10^−4 mol/L tested substance, phosphate buffer pH 7.4, cysteine 5 mmol/L, 37° C., 1 h, as nitrite. On the procedure: Experiment 1. Experimental Study on the Tested Compounds for Releasing Nitric Oxide in vitro
Experimental Procedure: • (1) Preparation of Griess Reagent: 4 g of aminobenzenesulfonamide, 0.2 g of N-naphthyl ethylene diamine hydrochloride, and 10 mL of 85% phosphoric acid solution were taken to form a solution, which is diluted to 100 mL with distilled water. • (2) Plotting of the standard curve: a serie of standard solution of 0.01, 0.03, 0.05, 0.07, 0.09, 0.2, 0.4 μg/mL of nitrite nitrogen was prepared, 10 mL of each was taken to sufficiently mix with 2.5 mL of Griess reagent, standing at room temperature for 10 min, and its absorbance value at the wavelength of 540 nm was measured. The standard curve was plotted based on the resulting data. • (3) Measuring the amount of the released NO of the tested drug: all of the tested substances were dissolved in dimethylsulfoxide (1 mL) firstly. Then phosphate buffer (pH 7.4) was slowly added dropwise, and shaken. The drug solution was diluted to 50 mL, allowing the buffer solution to contain excess cysteine (5 mmol/L), and the final concentration of the tested substances being 10^−4 mol/L; the solution was incubated at 37° C. 2 mL of the reaction solution was taken to mix with 500 μl of Griess reagent at 1 h respectively, standing at room temperature for 10 min. The absorbance value of the mixture at 540 nm was measured. Isosorbide mononitrate was used as a positive control, and H130 was used as a negative control. The amount of the released NO was represented by the amount of its oxidation product, nitrite (NO2^−).

A short description of data set [3]: Plasma stability in vitro, mouse plasma. As to conditions: CD-1 mice plasma, 2 μM, 37° C., in % (unit assumed).
Method: (§1) Experimental method: The tested compounds (2 μM) were added into mouse or human plasma, and incubated at 37° C. Samples were taken at 0, 10, 30, 60 and 120 min respectively. The reaction was stopped by adding a stop agent. The mixture was sufficient shaken, and centrifuged at 4000 rpm for 10 min at 4° C. The supernatant was taken. The concentrations of the tested compounds and their metabolite (H130) in the supernatant were measured by LC-MS/MS.
The nature of data set [4]: Plasma stability in vitro, human plasma. As to conditions: for Content of Tested Substance (n = 2): human plasma, 2 μM, 37° C., in % (unit assumed); for stability in human plasma: within 2 h.
Method: as §1

As to “2-(N-((2-(4-(5,7-dimethoxy-4-oxo-3,4-dihydro-quinazolin-2-yl)-2,6-dimethyl-phenoxy]-ethoxy) carbonyl)oxy)sulfamoyl)-1-methyl-1H-pyridine 1-2-onium salt [Compound H122]”, the “Molar Quantities of N2O/Sample” value in data set [1] is 18.3%.

On to “3-(nitroxy)-2,2-di(nitroxymethyl) propyl 4-(2-[4-(5,7-dimethoxy-4-oxo-3,4-dihydro-quinazolin-2-yl)-2,6-dimethyl-phenoxy] butyl)-4-oxo-2-acetamino-butyrate [Compound H124]”, for which the “Amount of Released No” value in data set [2] came to 2.89 µM.

Regarding `[Na+].[Na+].[O-][N+]([O-])=NO` [Angeli's Salt, reference compound], the “Molar Quantities of N2O/Sample” value in data set [1] came to 62.4%.

`COc1cc(OC)c2c(=O)[nH]c(-c3cc(C)c(OCCOC(=O)c4cccc(CO[N+](=O)[O-])c4)c(C)c3)nc2c1` [Compound H102, 2-[4-(5,7-dimethoxy-4-oxo-3,4-dihydro-quinazolin-2-yl)-2,6-dimethyl-phenoxy]-ethyl 3-nitroxymethyl-benzoate]: the “Content of Tested Substance (n = 2)” value in data set [3] (0 min) is 100.0; in data set [3] (10 min), 10.8; in data set [3] (30 min), 1.3; in data set [3] (60 min), 3.1; in data set [3] (120 min), 1.8; in data set [4] (0 min), 100.0. The “Content of Tested Substance (n = 2)” value came out at 101.5 in data set [4] (10 min), 98.4 in data set [4] (30 min), 95.0 in data set [4] (60 min) and 84.5 in data set [4] (120 min). Besides, in data set [4], the “stability in human plasma” value is recorded as “good stability”. Besides, the “time after which NO is produced” value in data set [2] is not below 2 h. Besides, the “Amount of Released No” value in data set [2] was -0.55 µM. Further, the “NO release detected within 1 h” value in data set [2] (within 1 h) is on record as “does not produce NO within 1 h”.

Take `COc1cc(OC)c2c(=O)[nH]c(-c3cc(C)c(OCCOC(=O)ONS(=O)(=O)c4ccc(C)s4)c(C)c3)nc2c1` [Compound H103, N-((2-(4-(5,7-dimethoxy-4-oxo-3,4-dihydroquinazolin-2-yl)-2,6-dimethylphenoxy)ethoxy)carbonyloxy)-5-methylthiophene-2-sulfonamide]: the “Molar Quantities of N2O/Sample” value in data set [1] worked out at 19.7%. The “Content of Tested Substance (n = 2)” value in data set [3] (0 min) amounted to 100.0; in data set [3] (10 min), 0.0; in data set [3] (30 min) it was 0.0; in data set [3] (60 min) it was 0.0; in data set [3] (120 min) it was 0.0; in data set [4] (0 min) it was 100.0. Besides, the “Content of Tested Substance (n = 2)” value in data set [4] (10 min) was 97.3; in data set [4] (30 min), 89.6; in data set [4] (60 min), 83.3; in data set [4] (120 min), 86.9. The “stability in human plasma” value in data set [4] is “good stability”.

On to `COc1cc(OC)c2c(=O)[nH]c(-c3cc(C)c(OCCOC(=O)C(O)CC(=O)OCc4c(-c5ccccc5)no[n+]4[O-])c(C)c3)nc2c1` (stereo not shown) [Compound H113, 2-[4-(5,7-dimethoxy-4-oxo-3,4-dihydro-quinazolin-2-yl)-2,6-dimethyl-phenoxy]-ethyl (2-oxo-4-phenyl-furazan-3-yl)-methyl 2-hydroxy succinate], for which, in data set [2], the “Amount of Released No” value came to 45.63 µM.

Regarding `COc1cc(OC)c2c(=O)[nH]c(-c3cc(C)c(OCCOC(=O)/C=C/C(=O)ONS(=O)(=O)c4ccco4)c(C)c3)nc2c1` [Compound H115, 2-[4-(5,7-dimethoxy-4-oxo-3,4-dihydro-quinazolin-2-yl)-2,6-dimethyl-phenoxy]-ethyl (E)-4-((furan-2-sulfonylamino)oxy)-4-oxo-2-crotonate], the “Molar Quantities of N2O/Sample” value in data set [1] is listed as 17.8%.

In the case of `COc1cc(OC)c2c(=O)[nH]c(-c3cc(C)c(OCCOC(=O)CCC(=O)N4CCN(CCO[N+](=O)[O-])CC4)c(C)c3)nc2c1` [Compound H117, 2-[4-(5,7-dimethoxy-4-oxo-3,4-dihydro-quinazolin-2-yl)-2,6-dimethyl-phenoxy]-ethyl 4-[4-(2-(nitroxy)ethyl)-piperazin-1-ly]-4-oxo-butyrate], the “Amount of Released No” value in data set [2] is 1.36 µM.

With `COc1cc(OC)c2c(=O)[nH]c(-c3cc(C)c(OCCOC(=O)NC4COC5C(O[N+](=O)[O-])COC45)c(C)c3)nc2c1` (stereo not shown) [Compound H120, 2-[4-(5,7-dimethoxy-4-oxo-3,4-dihydro-quinazolin-2-yl)-2,6-dimethyl-phenoxy]-ethyl (6-nitroxy-hexahydrofuro[3,2-b]furan-3-yl)-carbamate], in data set [2], the “Amount of Released No” value is 1.32 µM.

`COc1cc(OC)c2c(=O)[nH]c(-c3cc(C)c(OCCOC(=O)CCC(=O)ONS(=O)(=O)c4ccc(Cl)s4)c(C)c3)nc2c1` [Compound H121, 2-[4-(5,7-dimethoxy-4-oxo-3,4-dihydro-quinazolin-2-yl)-2,6-dimethyl-phenoxy]-ethyl 4-(((5-chlorothiophene)-2-sulfonylamino)oxy)-4-oxo-butyrate]: the “Molar Quantities of N2O/Sample” value in data set [1] is on record as 24.6%.
